Where “and” joins values, the source holds several entries; their conditions need not be identical. Equal entries are not always repeated. Where two headings read alike, the source gives them in different places. One block for each compound: values may come before it.
What was measured:
[1] = molecular target: T1, ULK1 (Homo sapiens, UniProt O75385); experiment: ULK1 ADP Hunter Plus kinase activity assay; assay type: biochemical
T1 construct: purchased MRC PPU Reagents and Services, Dundee, Scotland
T1 sequence (O75385 1-1050): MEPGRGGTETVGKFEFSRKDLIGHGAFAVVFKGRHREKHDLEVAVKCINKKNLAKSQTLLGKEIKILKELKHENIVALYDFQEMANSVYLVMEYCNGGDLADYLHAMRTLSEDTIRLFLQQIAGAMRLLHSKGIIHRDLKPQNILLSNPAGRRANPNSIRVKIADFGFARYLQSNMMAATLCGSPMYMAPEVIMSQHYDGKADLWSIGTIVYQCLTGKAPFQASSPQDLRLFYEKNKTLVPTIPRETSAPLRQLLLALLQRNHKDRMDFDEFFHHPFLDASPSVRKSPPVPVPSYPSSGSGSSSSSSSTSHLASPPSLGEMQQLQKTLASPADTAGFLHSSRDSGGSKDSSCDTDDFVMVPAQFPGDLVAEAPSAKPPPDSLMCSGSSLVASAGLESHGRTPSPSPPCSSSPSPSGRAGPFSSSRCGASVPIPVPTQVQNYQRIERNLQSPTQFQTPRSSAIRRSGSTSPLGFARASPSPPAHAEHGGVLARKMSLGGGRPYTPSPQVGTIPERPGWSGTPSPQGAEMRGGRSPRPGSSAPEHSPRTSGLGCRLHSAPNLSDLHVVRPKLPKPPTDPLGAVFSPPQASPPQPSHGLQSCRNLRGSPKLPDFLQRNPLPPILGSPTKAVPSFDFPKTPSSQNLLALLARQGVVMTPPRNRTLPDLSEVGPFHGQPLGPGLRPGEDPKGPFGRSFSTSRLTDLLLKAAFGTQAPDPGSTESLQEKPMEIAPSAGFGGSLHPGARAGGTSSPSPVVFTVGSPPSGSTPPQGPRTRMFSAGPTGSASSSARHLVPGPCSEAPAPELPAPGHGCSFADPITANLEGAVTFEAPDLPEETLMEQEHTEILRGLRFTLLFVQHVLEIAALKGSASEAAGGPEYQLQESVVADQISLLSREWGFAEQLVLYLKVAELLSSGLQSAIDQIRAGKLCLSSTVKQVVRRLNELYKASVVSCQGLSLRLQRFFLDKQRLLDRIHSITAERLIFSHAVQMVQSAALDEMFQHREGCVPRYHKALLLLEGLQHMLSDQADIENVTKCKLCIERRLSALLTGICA

[2] = tested on: VPS34 (WIPI2 puncta); experiment: Cellular VPS34 activity: WIPI2 puncta immunofluorescence in U2OS cells; assay type: cell-based, human
Method: (§1) U2OS (human osteosarcoma-derived) cells were cultured in DMEM supplemented with 10% foetal bovine serum, 100 U/ml Penicillin and […] L-glutamine. Cells were pre-treated with compounds at the indicated concentrations for 60 min followed by treatments with EBSS or EBSS combined with/without 50 nM Bafilomycin A1 (Enzo Life Sciences) for a further 60 or 120 min with/without inhibitors, as indicated in figures/figure legends.
(§2) Prior to immunofluorescence, cells were grown on glass coverslips to ∼60% confluency. Cells were washed in PBS prior to fixation with 3.7% PFA/10 mM HEPES pH 7.0 at room temperature for 20 min. PFA was quenched using DMEM/10 mM HEPES pH 7.0/0.02% NaN3, followed by permeabilisation with 0.2% NP-40 in PBS for 5 min, followed by blocking with 1% BSA/PBS/0.02% NaN3. Primary antibody incubation was at room temperature for 60 min, followed by two 10-minute washes, then fluorescent secondary antibody incubation for 30 min and further washes (all in blocking buffer) before mounting onto glass slides. A wide field Nikon TS microscope was used for image capturing.
(§3) Quantification of western blots was performed with band densitometry analysis using ImageJ. Quantification of LC3 puncta was performed using either the ITCN plugging in ImageJ or Volocity. One-way or two-way Anova (using GraphPad Prism) followed by a post-hoc test, was used for statistical analysis of western blots and immunofluorescence as indicated in figure legends.

[3] = molecular target: AMPK α1β2ɣ1 (Homo sapiens, UniProt O43741+P54619+Q13131); experiment: AMPK ADP Hunter Plus kinase activity assay
AMPK α1β2ɣ1, sequence (Q13131 whole entry): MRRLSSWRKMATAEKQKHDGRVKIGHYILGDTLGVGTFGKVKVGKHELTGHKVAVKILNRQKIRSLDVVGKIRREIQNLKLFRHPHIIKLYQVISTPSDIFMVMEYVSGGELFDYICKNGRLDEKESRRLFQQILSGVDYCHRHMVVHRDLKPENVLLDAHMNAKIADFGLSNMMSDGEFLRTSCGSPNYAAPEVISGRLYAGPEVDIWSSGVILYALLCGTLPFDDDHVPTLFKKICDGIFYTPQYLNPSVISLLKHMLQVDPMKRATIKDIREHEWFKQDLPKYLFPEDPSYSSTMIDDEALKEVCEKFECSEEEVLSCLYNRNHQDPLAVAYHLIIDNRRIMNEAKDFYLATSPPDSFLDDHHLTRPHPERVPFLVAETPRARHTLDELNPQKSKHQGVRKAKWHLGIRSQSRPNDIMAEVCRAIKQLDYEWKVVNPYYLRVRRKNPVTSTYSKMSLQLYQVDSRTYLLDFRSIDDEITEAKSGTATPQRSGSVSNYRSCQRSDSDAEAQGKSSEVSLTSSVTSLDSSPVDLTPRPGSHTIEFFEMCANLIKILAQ
AMPK α1β2ɣ1, sequence (O43741 whole entry partner): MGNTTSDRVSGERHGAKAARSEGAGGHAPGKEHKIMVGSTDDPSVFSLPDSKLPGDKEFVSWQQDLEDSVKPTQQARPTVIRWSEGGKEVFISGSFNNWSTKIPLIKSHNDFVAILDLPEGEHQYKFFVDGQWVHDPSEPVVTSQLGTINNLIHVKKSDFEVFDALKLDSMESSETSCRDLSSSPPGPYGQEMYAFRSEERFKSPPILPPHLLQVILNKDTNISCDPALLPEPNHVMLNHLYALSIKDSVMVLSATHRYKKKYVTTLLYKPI
AMPK α1β2ɣ1, sequence (P54619 whole entry partner): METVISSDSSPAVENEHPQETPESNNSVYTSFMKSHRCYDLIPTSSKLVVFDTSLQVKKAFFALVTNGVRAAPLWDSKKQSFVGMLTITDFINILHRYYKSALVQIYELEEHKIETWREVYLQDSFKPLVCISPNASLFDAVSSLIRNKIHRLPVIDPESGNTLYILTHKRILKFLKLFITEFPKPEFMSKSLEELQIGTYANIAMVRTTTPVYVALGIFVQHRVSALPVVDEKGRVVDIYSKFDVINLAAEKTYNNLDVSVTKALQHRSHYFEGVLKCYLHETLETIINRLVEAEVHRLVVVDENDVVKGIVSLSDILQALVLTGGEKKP

[4] = molecular target: VPS34 (Homo sapiens, UniProt Q8NEB9); experiment: VPS34 ADP Hunter Plus kinase activity assay; conditions: for Mechanism of inhibition of VPS34 with respect to ATP: varying ATP below 200 µM, Michaelis–Menten and Lineweaver–Burk plots; for Mechanism of inhibition of VPS34 with respect to PI:PS: varying PI:PS below 12 µM
VPS34, sequence (Q8NEB9 whole entry): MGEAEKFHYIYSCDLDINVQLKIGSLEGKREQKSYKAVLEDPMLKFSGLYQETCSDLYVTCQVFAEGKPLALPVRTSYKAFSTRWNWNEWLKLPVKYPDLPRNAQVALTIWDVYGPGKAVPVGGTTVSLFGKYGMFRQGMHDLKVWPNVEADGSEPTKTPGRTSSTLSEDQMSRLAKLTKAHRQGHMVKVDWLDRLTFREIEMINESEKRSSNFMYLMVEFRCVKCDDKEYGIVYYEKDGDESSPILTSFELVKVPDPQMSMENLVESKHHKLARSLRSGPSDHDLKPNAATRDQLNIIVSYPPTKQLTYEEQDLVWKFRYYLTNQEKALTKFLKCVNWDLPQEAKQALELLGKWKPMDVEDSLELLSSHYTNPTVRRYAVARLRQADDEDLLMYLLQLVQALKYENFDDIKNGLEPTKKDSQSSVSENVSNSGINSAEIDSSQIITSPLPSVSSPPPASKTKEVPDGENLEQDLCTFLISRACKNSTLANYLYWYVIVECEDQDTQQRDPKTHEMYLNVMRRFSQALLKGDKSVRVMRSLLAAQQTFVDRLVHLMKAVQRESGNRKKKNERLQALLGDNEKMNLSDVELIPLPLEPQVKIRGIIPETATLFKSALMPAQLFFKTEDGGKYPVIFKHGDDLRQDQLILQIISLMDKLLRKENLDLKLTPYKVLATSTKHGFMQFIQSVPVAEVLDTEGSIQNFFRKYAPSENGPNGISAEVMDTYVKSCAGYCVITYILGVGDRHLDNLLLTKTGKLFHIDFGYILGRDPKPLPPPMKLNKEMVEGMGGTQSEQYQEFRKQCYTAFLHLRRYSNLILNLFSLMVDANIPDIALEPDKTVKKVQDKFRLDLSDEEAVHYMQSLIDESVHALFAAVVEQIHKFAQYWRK

[5] = tested on: ULK1 (pS318 ATG13); experiment: Cellular ULK1 kinase activity: pS318 ATG13 western blot in U2OS cells; assay type: cell-based, human; conditions: for Effect on starvation-induced increase in pS318 ATG13: 5 µM, 60 min pre-treatment then 60 min EBSS, U2OS; for Cellular ULK1 inhibition compared with GW837331X and GW406108X: 2 µM MRT68921, 5 µM SBI0206965, 120 min EBSS, U2OS western blot (Supplementary Figure S6C)
Method: as §1
(§4) Lysates were then spun at 20 000×g for 10 min and the supernatant was collected for protein content estimation using Protein Assay Dye Reagent Concentrate from Bio-Rad. 4× LDS was added to the lysate (final dilution 1×) prior to heating at 95°C for 5 min. Electrophoresis and transfer to PVDF membranes was performed using standard protocols. Membranes were blocked in 5% milk in TBS-T prior to incubation with primary antibodies (in 5% milk/TBS-T for ULK1, pS555 (human S556) ULK1, pS757 (human S758) ULK1, pS318-ATG13, ATG13, and in 5% BSA/TBS-T for LC3 and α-Tubulin) under rotation overnight at 4°C followed by washes in TBS-T and incubation with HRP-conjugated secondary antibodies (in 5% milk in TBS-T) for 60 min at room temperature. Membranes were washed in TBS-T before application of ECL reagent (GE healthcare) and development on hypersensitive X-ray films (GE healthcare) (Figures 5A, 6C and Supplementary Figure S7C) or using BIO-RAD Clarity^TM western blotting substrate (Supplementary Figure S6C and Supplementary Figure S7A) and a BIO-RAD ChemiDoc^TM imaging system.
as §3

[6] = tested on: LC3 flux in U2OS cells; experiment: Autophagic flux: LC3-II western blot with/without BafA1 in U2OS cells; assay type: cell-based, human; conditions: for Effect on starvation-induced LC3 flux: 5 µM, 60 min pre-treatment then 60 min EBSS ± 50 nM BafA1, U2OS
Method: as §1
as §4, with “Prior to western blot analysis, cells were washed twice in ice-cold PBS and lysed in buffer containing 50 mM HEPES pH 7.4, 150 mM NaCl, 1 mM EDTA, 10% Glycerol, 0.5% NP-40, 1 mM DTT, supplemented with phosphatase inhibitors (1.15 mM sodium molybdate, 4 mM sodium tartrate, 0.01 M β-glycerophosphate, 1 mM sodium fluoride, 1 mM sodium orthovanadate) and protease inhibitor tablets (Roche) according to manufacturer's instructions. Lysates” for “Lysates”
as §3

[7] = tested on: LC3 puncta in U2OS cells; experiment: Endogenous LC3 puncta immunofluorescence in U2OS cells; assay type: cell-based, human; conditions: for Enlarged/stalled LC3 puncta (autophagosomes) phenotype: 2 µM MRT68921, 5 µM others, 60 min pre-treatment then 120 min EBSS; for Effect on EBSS-induced increase in LC3 puncta formation: 5 µM
Method: as §1, §2, §3

[8] = tested on: mTOR (ULK1 pS758); experiment: Upstream mTOR activity: ULK1 pS758 western blot in U2OS cells; assay type: cell-based, human; conditions: for Effect on mTORC1 activity (pS758 ULK1): 100 nM (VPS34-IN1 500 nM), 60 min pre-treatment, ± EBSS 60 min
Method: as §1, §4, §3

[9] = tested on: AMPK (ULK1 pS556); experiment: Upstream AMPK activity: ULK1 pS556 western blot in U2OS cells; assay type: cell-based, human; conditions: for Effect on AMPK activity (pS556 ULK1): 100 nM (VPS34-IN1 500 nM), 60 min pre-treatment, ± EBSS 60 min
Method: as §1, §4, §3

[10] = tested on: kinases (human kinome panel); set-up: method as in ChEMBL database; conditions: value = the kinase inhibited over 50%; ref ChEMBL database; cited from earlier work
[11] = resynthesized samples, mean potency in parenthesis, n = 5, read-out: IC50 against ULK1 (converted)
[12] = IC50 against VPS34, resynthesized samples, mean potency in parenthesis, n = 5
[13] = pIC50 against VPS34, original PKIS samples, concentration-dependent retest of screen hits

Compound: O=S(=O)(c1ccc(-c2ccnc3[nH]ccc23)cc1)N1CCCC1 [GSK846226A]
IC50 [1, 11]: 0.603 µM
Concentration with inhibitory effect on WIPI2 puncta formation ([2]; EBSS, not at lower concentrations): 5 µM
IC50 [3]: 2.51 µM
IC50 ([4]; IC50 against VPS34, resynthesized sample): 1.2 µM
IC50 [4, 12]: 1.2 µM
IC50 [4, 13]: < 1 µM
Mechanism of inhibition of VPS34 with respect to ATP [4]: primarily ATP competitive inhibition
Mechanism of inhibition of VPS34 with respect to PI:PS [4]: clear non-competitive inhibition

Compound: CN1CCc2cc(Nc3ncc(C4CC4)c(NCCCNC(=O)C4CCC4)n3)ccc2C1 [MRT68921, reference compound]
Cellular ULK1 inhibition compared with GW837331X and GW406108X [5]: inhibited ULK1 more potently
Enlarged/stalled LC3 puncta (autophagosomes) phenotype [7]: larger than those formed with EBSS alone

Compound: CNC(=O)c1ccccc1Oc1nc(Nc2cc(OC)c(OC)c(OC)c2)ncc1Br [SBI0206965, reference compound]
Cellular ULK1 inhibition compared with GW837331X and GW406108X [5]: inhibited ULK1 more potently
Enlarged/stalled LC3 puncta (autophagosomes) phenotype [7]: larger than those formed with EBSS alone

Compound: CC(C)(O)CNc1ncc(-c2ccnc(Nc3ccnc(Cl)c3)n2)c(CC2CC2)n1 [VPS34-IN1, reference compound]
Concentration blocking EBSS-induced autophagy (LC3) flux ([6]; U2OS, EBSS + 50 nM BafA1, as low as, greater effect at 100 nM): ≤ 10 nM
Effect on mTORC1 activity (pS758 ULK1) [8]: unaffected
Effect on AMPK activity (pS556 ULK1) [9]: unaffected

Now from value to compound, other results behind:

IC50 [3]: 0.347 µM
IC50 ([4]; pIC50 against VPS34, resynthesized samples, 50 µM ATP (KM app), mean ± SD, n = 5): 26.3 µM
Compound: CC(C)(CO)CNC(=O)c1ccc2c(c1)/C(=N/Nc1ccc(S(N)(=O)=O)cc1)C(=O)N2 [GW301784X]
Effect on starvation-induced increase in pS318 ATG13 [5]: did not have a significant effect
Effect on starvation-induced LC3 flux [6]: did not block LC3 flux

IC50 [4, 12]: 0.457 µM
Compound: O=C1Nc2ccc(C(=O)c3ccco3)cc2C1=Cc1cc(Cl)c(O)c(Cl)c1 [GW406108X]
Effect on starvation-induced increase in pS318 ATG13 [5]: significantly reduced
Effect on starvation-induced LC3 flux [6]: significantly blocked
Enlarged/stalled LC3 puncta (autophagosomes) phenotype [7]: did not show this phenotype
Effect on EBSS-induced increase in LC3 puncta formation [7]: abolished

IC50 [1, 11]: 8.71 µM
IC50 [3]: 3.16 µM
IC50 [4, 12]: 0.0905 µM and 0.091 µM
IC50 [4, 13]: < 1 µM
Mechanism of inhibition of VPS34 with respect to ATP [4]: primarily ATP competitive inhibition
Mechanism of inhibition of VPS34 with respect to PI:PS [4]: clear non-competitive inhibition
Compound: O=C1Nc2ccc(-c3cccnc3)cc2C1=Cc1cc(Br)c(O)c(Br)c1 [GW429374A]
Effect on LC3 flux under EBSS starvation ([6]; 100 nM, 60 min pre-treatment then 60 min EBSS, U2OS): significantly reduced LC3 flux
Effect on EBSS-induced WIPI2 puncta ([2]; 100 nM, 60 min pre-treatment then 60 min EBSS, vs EBSS only): significantly reduced
Concentration working in cells (WIPI2 puncta reduction) ([2]; EBSS, as low as): ≤ 100 nM
Effect on mTORC1 activity (pS758 ULK1) [8]: unaffected
Effect on AMPK activity (pS556 ULK1) [9]: unaffected

IC50 ([1]; original PKIS samples, concentration-dependent retest of screen hits, read-out: pIC50 against ULK1 (converted)): < 1 µM
IC50 [1, 11]: 0.646 µM
Mechanism of inhibition of ULK1 with respect to ATP ([1]; varying ATP below 600 µM, Michaelis–Menten and Lineweaver–Burk plots): primarily ATP competitive inhibition
Mechanism of inhibition of ULK1 with respect to MBP ([1]; varying MBP substrate): clear non-competitive inhibition
IC50 [3]: 2.34 µM
IC50 [4, 12]: > 100 µM
Compound: COc1cc(Nc2ncc3c(C)nc(-c4cccc(C(F)(F)F)c4)n3n2)cc(OC)c1OC [GW837331X]
Effect on starvation-induced increase in pS318 ATG13 [5]: significantly reduced
Effect on starvation-induced LC3 flux [6]: significantly blocked
Enlarged/stalled LC3 puncta (autophagosomes) phenotype [7]: did not show this phenotype
Effect on EBSS-induced increase in LC3 puncta formation [7]: abolished
Effect on mTOR activity (ULK1 pS758 levels) ([8]; 5 µM): without affecting mTOR or AMPK activity
Effect on AMPK activity (ULK1 pS556 levels) ([9]; 5 µM): without affecting mTOR or AMPK activity
Kinases that are inhibited over 50% (descending order) [10]: NEK9 and PLK1 and FMS and SRC and MELK and EphB2 and EphA4

Source: PMC7054748, “The identification and characterisation of autophagy inhibitors from the published kinase inhibitor sets” (Biochemical Journal, 2020)
